The values that follow are results of earlier work, collected in paper PMC9301717 (ACS Omega, 2022).

The structures appear in SMILES notation.

Series [1] deals with IDE.
For series [2], the system named is IDE. The source holds these as a separate data set.

With `Oc1ccc(/C=C/c2cc(O)cc(O)c2)cc1` [resveratrol], the “effect on IDE's activity toward Aβ42” value in the series on IDE [1] is reported as “sustains”. The “effect on the enzyme's ability to degrade insulin” value in the series with IDE [2] is reported as “has no effect”.
